Data on ten compounds can be found in PubChem BioAssay AID1259408 (Genetic Toxicology Data Bank (GENE-TOX), 2018).

Calls of active or inactive are those of the source. How the calls were made is not given here.

The subject of the data set is GENE-TOX genotoxicity assays, various organisms and cells. Kind of data set: GENE-TOX mutagenicity studies.
The mark [1] stands for this setting: Species/Cell Type: Salmonella typhimurium (one or more of the five standard strains: TA98, TA100, TA1535, TA1537, and TA1538), Assay Type: Histidine reverse gene mutation, Ames assay, Assay Code: SAL-, Evaluation Type: Evaluation A (Pre-1980).
The mark [2] stands for this setting: Species/Cell Type: Mouse, Sex: Male, Assay Type: Sperm morphology, Assay Code: SPI-, Evaluation Type: Evaluation A (Pre-1980).
Where [3] appears, read: Species/Cell Type: Nonhuman, Assay Type: Sister-chromatid exchange (SCE) in vitro, Assay Code: SC2T, Evaluation Type: Evaluation B (Post-1980).

Turning to `CNNCc1ccc(C(=O)NC(C)C)cc1`, the mutagenic call was “inactive; negative” (Species/Cell Type: Drosophila melanogaster, Assay Type: Aneuploidy, partial sex chromosome loss, chromosome aberrations, Assay Code: DAP-M, Evaluation Type: Evaluation A (Pre-1980)); “active; positive” (Species/Cell Type: Drosophila melanogaster, Assay Type: Aneuploidy, whole sex chromosome loss, chromosome aberrations, Assay Code: DAC+M, Evaluation Type: Evaluation A (Pre-1980)); “active; positive” (Species/Cell Type: Drosophila melanogaster, Assay Type: Sex-linked recessive lethal gene mutation, Assay Code: SRL+, Evaluation Type: Evaluation A (Pre-1980)); “inactive; negative” (Species/Cell Type: Drosophila melanogaster, Sex: Male, Assay Type: Heritable translocation test, chromosome aberrations, Assay Code: DHT-, Evaluation Type: Evaluation A (Pre-1980)); “active; positive” (Species/Cell Type: Escherichia coli polA (W3119 vs P3478), Assay Type: Rec-assay, DNA effects (bacterial DNA repair), Assay Code: RE1+, Evaluation Type: Evaluation A (Pre-1980)); “active; positive” (Species/Cell Type: Fischer rat embryo (RLV/1706) cells, Assay Type: Cell transformation, viral enhanced, Assay Code: CTR+, Evaluation Type: Evaluation A (Pre-1980)). Moreover, the mutagenic call was “active; positive” (Species/Cell Type: Human lymphocytes, Assay Type: Sister-chromatid exchange (SCE) in vitro, Assay Code: SCL+, Evaluation Type: Evaluation B (Post-1980)); “active; positive” (Species/Cell Type: Human, Assay Type: Sister-chromatid exchange (SCE) in vitro, Assay Code: SC1+, Evaluation Type: Evaluation B (Post-1980)); “active; positive” (Species/Cell Type: Mammalian polychromatic erythrocytes, Assay Type: Micronucleus test, chromosome aberrations, Assay Code: MNT+, Evaluation Type: Evaluation A (Pre-1980)); “inactive; negative” (Species/Cell Type: Mouse (BALB/c-3T3) cells, Assay Type: Cell transformation, Assay Code: CTB-, Evaluation Type: Evaluation A (Pre-1980)); “active; positive” (Species/Cell Type: Mouse lymphoma (L5178Y) cells, Assay Type: Forward gene mutation at the thymidine kinase (TK) locus, chromosome aberrations, Assay Code: L51+, Evaluation Type: Evaluation A (Pre-1980)); “active; positive” (Species/Cell Type: Mouse, Sex: Female, Assay Type: Spot test, gene mutation, Assay Code: MST+, Evaluation Type: Evaluation A (Pre-1980)). The mutagenic call was “active; positive” (Species/Cell Type: Mouse, Sex: Male, Assay Type: Heritable translocation test, chromosome aberrations, Assay Code: HTT+, Evaluation Type: Evaluation A (Pre-1980)); “active; positive” (Species/Cell Type: Mouse, Sex: Male, Assay Type: Specific locus test, gene mutation, Assay Code: SLT+, Evaluation Type: Evaluation A (Pre-1980)); “active; positive” (Species/Cell Type: Mouse, Sex: Male, Assay Type: Sperm morphology, Assay Code: SPI+, Evaluation Type: Evaluation A (Pre-1980)); “active; positive” (Species/Cell Type: Neurospora crassa, Assay Type: Forward gene mutation, Assay Code: NEF+, Evaluation Type: Evaluation A (Pre-1980)); “active; positive” (Species/Cell Type: Nonhuman, Assay Type: Sister-chromatid exchange (SCE) in vivo, Assay Code: SC3+D, Dose Response: With dose response, Evaluation Type: Evaluation A (Pre-1980)); “active; positive” (Species/Cell Type: Rabbit, Sex: Male, Assay Type: Sperm morphology, Assay Code: SPR+, Evaluation Type: Evaluation A (Pre-1980)). Also, the mutagenic call by setting is: (Species/Cell Type: Rodents, Sex: Male, Assay Type: Dominant lethal test, Assay Code: DLT+, Evaluation Type: Evaluation A (Pre-1980)) “active; positive”; (Species/Cell Type: Saccharomyces cerevisiae, Assay Type: Mitotic recombination or gene conversion, Assay Code: YEC+/-*, Activation: With metabolic activation, Evaluation Type: Evaluation A (Pre-1980)) “inactive; positive without activation, negative with activation”; (Species/Cell Type: Saccharomyces cerevisiae, Assay Type: Mitotic recombination or gene conversion, Assay Code: YEH+/-*, Activation: With metabolic activation, Evaluation Type: Evaluation A (Pre-1980)) “inactive; positive without activation, negative with activation”; (Species/Cell Type: Saccharomyces cerevisiae, Assay Type: Reverse gene mutation, Assay Code: YER+/-*, Activation: With metabolic activation, Evaluation Type: Evaluation A (Pre-1980)) “inactive; positive without activation, negative with activation”; under setting [1], “inactive; negative”; (Species/Cell Type: Salmonella typhimurium, Assay Type: Forward and reverse gene mutation, host-mediated assay, Assay Code: HMA+, Evaluation Type: Evaluation A (Pre-1980)) “active; positive”. For the same compound, the mutagenic call (Species/Cell Type: Syrian hamster embryo (SHE) cells, Assay Type: Cell transformation, clonal assay, Assay Code: CTC+, Evaluation Type: Evaluation A (Pre-1980)) is “active; positive”. In addition, where the note is “Species/Cell Type: Nonhuman, Assay Type: In vivo carcinogenicity studies, Assay Code: CCG+, Evaluation Type: Evaluation A (Pre-1980)”, the call is “active; positive”.
Consider `O=[N+]([O-])O.O=[N+]([O-])O.[Cd+2]`, for which the mutagenic call (Species/Cell Type: Nonhuman, Assay Type: Sister-chromatid exchange (SCE) in vitro, Assay Code: SC2-, Evaluation Type: Evaluation B (Post-1980)) was “inactive; negative”.
In the case of `CCCCN(CCC(C)O)N=O` (stereo not given), the mutagenic call (Species/Cell Type: Salmonella typhimurium (one or more of the five standard strains: TA98, TA100, TA1535, TA1537, and TA1538), Assay Type: Histidine reverse gene mutation, Ames assay, Assay Code: SAL+, Evaluation Type: Evaluation A (Pre-1980)) was “active; positive”.
For the compound `CN(C)C=O`, the mutagenic call is, setting by setting: (Species/Cell Type: Mammalian polychromatic erythrocytes, Assay Type: Micronucleus test, chromosome aberrations, Assay Code: MNTT, Evaluation Type: Evaluation A (Pre-1980)) “no conclusion”; under setting [2], “inactive; negative”; (Species/Cell Type: Nonhuman, Assay Type: Sister-chromatid exchange (SCE) in vitro, Assay Code: SC2+, Evaluation Type: Evaluation B (Post-1980)) “active; positive”; (Species/Cell Type: Rat primary hepatocytes, Assay Type: Unscheduled DNA synthesis (UDS) in vitro, DNA effects, Assay Code: UDP-, Evaluation Type: Evaluation A (Pre-1980)) “inactive; negative”; (Species/Cell Type: Syrian hamster embryo (SHE) cells, Assay Type: Cell transformation, clonal assay, Assay Code: CTC-, Evaluation Type: Evaluation A (Pre-1980)) “inactive; negative”.
As for `O=O`, the mutagenic call (Species/Cell Type: Chinese hamster lung (V79) cells, Assay Type: Forward gene mutation at the HPRT or ouabain locus, Assay Code: V79+, Evaluation Type: Evaluation A (Pre-1980)) was “active; positive”.
Turning to `COC(F)(F)C(Cl)Cl`, the mutagenic call under setting [2] was “inactive; negative”; the mutagenic call under setting [3] is “no conclusion”; the mutagenic call (Species/Cell Type: Salmonella typhimurium (one or more of the five standard strains: TA98, TA100, TA1535, TA1537, and TA1538), Assay Type: Histidine reverse gene mutation, Ames assay, Assay Code: SALT, Evaluation Type: Evaluation A (Pre-1980)) is on record as “no conclusion”.
`CCOS(=O)(=O)CCl`: the mutagenic call (Species/Cell Type: Schizosaccharomyces pombe, Assay Type: Reverse gene mutation, Assay Code: YEZ+, Evaluation Type: Evaluation A (Pre-1980)) is “active; positive”.
Regarding `CC(=O)NNC(C)=O`, the mutagenic call (Species/Cell Type: Mammalian polychromatic erythrocytes, Assay Type: Micronucleus test, chromosome aberrations, Assay Code: MNTT, Evaluation Type: Evaluation B (Post-1980)) is reported as “no conclusion”.
Regarding `CN(C)c1ccc(-c2ccc(N(C)C)cc2)cc1`, the mutagenic call under setting [1] was “inactive; negative”.
For the compound `O=C(O)c1c(Cl)c(Cl)c(Cl)c(Cl)c1-c1c2cc(I)c(=O)c(I)c-2oc2c(I)c(O)c(I)cc12`, the mutagenic call was “no conclusion” (Species/Cell Type: Bacillus subtilis (H17 vs M45), Assay Type: Rec-assay, spot test, DNA effects (bacterial DNA repair), Assay Code: REWT, Evaluation Type: Evaluation A (Pre-1980)); “no conclusion” (Species/Cell Type: Bacillus subtilis (H17 vs M45T), Assay Type: Rec-assay, spot test, DNA effects (bacterial DNA repair), Assay Code: REXT, Evaluation Type: Evaluation A (Pre-1980)); “no conclusion” (Species/Cell Type: Human, Assay Type: Sister-chromatid exchange (SCE) in vitro, Assay Code: SC1T, Evaluation Type: Evaluation B (Post-1980)); “no conclusion” under setting [3]; “inactive; negative” (Species/Cell Type: Saccharomyces cerevisiae, Assay Type: Mitotic recombination or gene conversion, Assay Code: YEC-, Evaluation Type: Evaluation A (Pre-1980)).
